Results from ChEMBL document CHEMBL1155644, “New marine cembrane-type diterpenoids from the Okinawan soft coral Clavularia koellikeri” (J Nat Prod, 2000).
Converted amounts (≈) assume the structure as drawn. The source made the active and inactive calls. No cut-off for these calls is given here.

Key:
Type in all cases: functional, cell-based
MOLT-4 [1] = assay: Cytotoxicity against human MOLT4 cells at 0.6 uM/mL
DLD-1 [2] = assay: Cytotoxicity against human DLD1 cells at 0.6 uM/mL
MOLT-4 [3] = assay: Cytotoxicity against human MOLT4 cells
DLD-1 [4] = assay: Cytotoxicity against human DLD1 cells

Compound | Activity (MOLT-4 [1]) | Activity (DLD-1 [2]) | IC50 (MOLT-4 [3]) | IC50 (DLD-1 [4])
C=C1C(=O)O[C@H]2/C=C(\C)C[C@H](OC(C)=O)/C=C(\C)CC/C=C(\C)C[C@H](O)[C@H]12 | Active | Active |  | 
C=C1C(=O)O[C@H]2/C=C(\C)C[C@H](OC(C)=O)/C=C(\C)C[C@H](OC(C)=O)/C=C(\C)C[C@H](OC(C)=O)[C@H]12 | Active | Active | 0.9 µg/mL (≈ 1.9 µM) | 4.2 µg/mL (≈ 8.85 µM)
